According to BindingDB's records for doi:10.1016/j.bmcl.2011.09.019 (Itherx Pharmaceuticals, 2011):

Assay: Inhibition of human SRB1-mediated Hepatitis C virus genotype 2a entry into human 293T cells by immunoblotting

Structure (SMILES)	IC50
COC(=O)c1ccc2c(c1)c1ccccc1n2CCCN1C[C@@H](C)N[C@@H](C)C1	230 nM
CCOC(=O)c1ccc2c(c1)c1ccccc1n2CCCN1C[C@@H](C)N[C@@H](C)C1	600 nM
CC(C)OC(=O)c1ccc2c(c1)c1ccccc1n2CCCN1C[C@@H](C)N[C@@H](C)C1	630 nM
C[C@@H]1CN(CCCn2c3ccccc3c3ccccc32)C[C@H](C)N1 [9-(3-(3,5-dimethylpiperazin-1-yl)propyl)-9H-carbazole]	1200 nM
